Measured values published in paper PMC4051630, “A Comparison of Protein Kinases Inhibitor Screening Methods Using Both Enzymatic Activity and Binding Affinity Determination” (PLoS ONE, 2014).

Tests used:
Experiment in all cases: Differential Scanning Fluorimetry (DSF) Tm shift
Format in all cases: binding
FES Catalytic Domain = molecular target: T1, FES Catalytic Domain (Homo sapiens, UniProt P07332); settings: 2 µM protein, 10 µM inhibitor, average of 3 experiments, each in duplicate
T1 construct: For all of them, we expressed and purified the catalytic domain separately; His-tag; made in house; host or cells: Escherichia coli
T1 sequence (P07332 561-822 limits assumed): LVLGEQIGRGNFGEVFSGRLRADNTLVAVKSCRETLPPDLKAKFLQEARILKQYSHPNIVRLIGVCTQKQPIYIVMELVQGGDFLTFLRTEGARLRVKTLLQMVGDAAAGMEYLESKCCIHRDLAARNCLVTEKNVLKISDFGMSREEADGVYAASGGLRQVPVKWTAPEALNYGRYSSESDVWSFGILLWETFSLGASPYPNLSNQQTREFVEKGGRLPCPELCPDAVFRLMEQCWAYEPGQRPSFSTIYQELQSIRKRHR

[1] = molecular target: T2, STK3 Catalytic domain+SARAH (Homo sapiens, UniProt Q13188); settings: 2 µM protein, 10 µM inhibitor, average of 3 experiments, each in duplicate
T2 construct: for 8, we also made a longer version containing one or more additional domains; His-tag; made in house; host or cells: Escherichia coli
T2 sequence (Q13188 1-491): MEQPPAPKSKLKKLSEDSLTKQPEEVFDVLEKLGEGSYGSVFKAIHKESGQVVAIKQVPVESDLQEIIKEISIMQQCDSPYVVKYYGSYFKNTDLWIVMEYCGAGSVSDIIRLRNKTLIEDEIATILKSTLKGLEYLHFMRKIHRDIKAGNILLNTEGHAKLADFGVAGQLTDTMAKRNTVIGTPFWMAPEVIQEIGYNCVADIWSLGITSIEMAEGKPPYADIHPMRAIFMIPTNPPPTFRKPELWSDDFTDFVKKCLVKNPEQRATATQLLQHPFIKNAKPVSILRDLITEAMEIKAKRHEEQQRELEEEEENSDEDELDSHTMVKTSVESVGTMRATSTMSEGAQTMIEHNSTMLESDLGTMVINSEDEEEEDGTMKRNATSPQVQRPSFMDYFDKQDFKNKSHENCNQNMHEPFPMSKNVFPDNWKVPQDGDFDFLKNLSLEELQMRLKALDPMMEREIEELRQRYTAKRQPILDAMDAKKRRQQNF

SRC Catalytic Domain = SRC Catalytic Domain (Homo sapiens, UniProt P12931); set-up: For all of them, we expressed and purified the catalytic domain separately; His-tag; made in house; host or cells: Escherichia coli; settings: 2 µM protein, 10 µM inhibitor, average of 3 experiments, each in duplicate
SRC Catalytic Domain, sequence (P12931 270-523 limits assumed): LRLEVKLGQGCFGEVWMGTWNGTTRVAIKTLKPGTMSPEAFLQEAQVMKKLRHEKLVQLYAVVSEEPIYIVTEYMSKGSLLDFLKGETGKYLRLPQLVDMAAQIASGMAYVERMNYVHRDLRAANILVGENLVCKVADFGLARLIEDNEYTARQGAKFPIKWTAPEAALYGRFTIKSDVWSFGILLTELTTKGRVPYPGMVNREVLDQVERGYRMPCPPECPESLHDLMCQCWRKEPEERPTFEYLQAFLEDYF

[2] = molecular target: SRC Catalytic Domain+SH2+SH3 (Homo sapiens, UniProt P12931); settings: 2 µM protein, 10 µM inhibitor, average of 3 experiments, each in duplicate
SRC Catalytic Domain+SH2+SH3, sequence (P12931 84-523 limits assumed): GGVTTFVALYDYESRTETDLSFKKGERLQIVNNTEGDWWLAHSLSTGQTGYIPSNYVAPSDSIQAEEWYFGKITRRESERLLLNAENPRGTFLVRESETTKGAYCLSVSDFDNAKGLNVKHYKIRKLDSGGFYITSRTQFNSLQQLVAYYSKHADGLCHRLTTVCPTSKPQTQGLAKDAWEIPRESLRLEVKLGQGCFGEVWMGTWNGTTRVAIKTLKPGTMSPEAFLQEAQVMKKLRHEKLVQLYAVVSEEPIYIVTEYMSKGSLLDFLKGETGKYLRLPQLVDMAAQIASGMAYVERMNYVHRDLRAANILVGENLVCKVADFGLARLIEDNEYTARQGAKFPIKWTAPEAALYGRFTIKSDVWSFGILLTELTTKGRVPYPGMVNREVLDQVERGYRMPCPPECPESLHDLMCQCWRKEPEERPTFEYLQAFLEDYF

PAK7 Catalytic Domain = molecular target: T3, PAK7 Catalytic Domain (Homo sapiens, UniProt Q9P286); settings: 2 µM protein, 10 µM inhibitor, average of 3 experiments, each in duplicate
T3 construct: For all of them, we expressed and purified the catalytic domain separately; His-tag; made in house; host or cells: Escherichia coli
T3 sequence (Q9P286 449-700 limits assumed): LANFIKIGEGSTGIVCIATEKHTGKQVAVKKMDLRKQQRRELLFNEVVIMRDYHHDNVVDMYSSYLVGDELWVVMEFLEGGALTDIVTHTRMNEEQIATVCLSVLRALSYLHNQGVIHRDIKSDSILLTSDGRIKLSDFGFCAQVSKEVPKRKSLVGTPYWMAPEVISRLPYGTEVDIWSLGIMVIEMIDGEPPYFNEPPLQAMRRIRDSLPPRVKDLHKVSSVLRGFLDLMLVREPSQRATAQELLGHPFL

FES Catalytic Domain+SH2 = molecular target: T4, FES Catalytic Domain+SH2 (Homo sapiens, UniProt P07332); settings: 2 µM protein, 10 µM inhibitor, average of 3 experiments, each in duplicate
T4 construct: for 8, we also made a longer version containing one or more additional domains; His-tag; made in house; host or cells: Escherichia coli
T4 sequence (P07332 448-822 limits assumed): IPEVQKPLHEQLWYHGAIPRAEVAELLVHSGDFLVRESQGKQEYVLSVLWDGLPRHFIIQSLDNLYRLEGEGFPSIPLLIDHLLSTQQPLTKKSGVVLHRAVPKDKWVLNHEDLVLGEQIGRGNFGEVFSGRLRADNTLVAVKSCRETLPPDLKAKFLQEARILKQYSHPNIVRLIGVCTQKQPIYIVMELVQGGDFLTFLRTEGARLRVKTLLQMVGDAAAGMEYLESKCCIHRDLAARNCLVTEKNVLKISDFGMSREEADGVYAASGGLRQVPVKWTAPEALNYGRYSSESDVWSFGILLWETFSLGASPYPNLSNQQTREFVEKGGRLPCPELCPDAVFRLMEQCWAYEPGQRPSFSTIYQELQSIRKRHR

CHK2 Catalytic Domain = molecular target: T5, CHK2 Catalytic Domain (Homo sapiens, UniProt O96017); settings: 2 µM protein, 10 µM inhibitor, average of 3 experiments, each in duplicate
T5 construct: For all of them, we expressed and purified the catalytic domain separately; His-tag; made in house; host or cells: Escherichia coli
T5 sequence (O96017 220-486 limits assumed): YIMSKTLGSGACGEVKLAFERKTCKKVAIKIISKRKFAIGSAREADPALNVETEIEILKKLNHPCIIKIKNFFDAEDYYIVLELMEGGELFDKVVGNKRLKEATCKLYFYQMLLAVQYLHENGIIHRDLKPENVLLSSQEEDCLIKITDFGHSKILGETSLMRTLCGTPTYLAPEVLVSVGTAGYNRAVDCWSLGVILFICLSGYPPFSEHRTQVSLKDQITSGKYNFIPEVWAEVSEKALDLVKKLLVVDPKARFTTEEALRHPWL

STK3 Catalytic Domain = molecular target: T6, STK3 Catalytic Domain (Homo sapiens, UniProt Q13188); settings: 2 µM protein, 10 µM inhibitor, average of 3 experiments, each in duplicate
T6 construct: For all of them, we expressed and purified the catalytic domain separately; His-tag; made in house; host or cells: Escherichia coli
T6 sequence (Q13188 27-278 limits assumed): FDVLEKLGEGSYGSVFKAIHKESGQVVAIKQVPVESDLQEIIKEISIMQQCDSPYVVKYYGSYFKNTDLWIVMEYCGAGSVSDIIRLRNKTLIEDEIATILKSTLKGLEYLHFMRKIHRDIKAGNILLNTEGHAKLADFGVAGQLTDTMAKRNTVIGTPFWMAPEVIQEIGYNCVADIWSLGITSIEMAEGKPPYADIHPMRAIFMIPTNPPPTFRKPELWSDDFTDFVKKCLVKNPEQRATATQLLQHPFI

FAK2 Catalytic Domain = molecular target: T7, FAK2 Catalytic Domain (Homo sapiens, UniProt Q14289); settings: 2 µM protein, 10 µM inhibitor, average of 3 experiments, each in duplicate
T7 construct: For all of them, we expressed and purified the catalytic domain separately; His-tag; made in house; host or cells: Escherichia coli
T7 sequence (Q14289 425-683 limits assumed): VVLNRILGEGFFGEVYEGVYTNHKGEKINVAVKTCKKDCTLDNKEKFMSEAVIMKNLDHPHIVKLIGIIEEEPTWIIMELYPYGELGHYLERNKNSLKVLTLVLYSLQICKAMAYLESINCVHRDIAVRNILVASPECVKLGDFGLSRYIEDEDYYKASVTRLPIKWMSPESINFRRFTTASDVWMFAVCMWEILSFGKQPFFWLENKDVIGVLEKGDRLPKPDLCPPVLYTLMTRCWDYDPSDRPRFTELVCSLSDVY

AKT3 Catalytic Domain = molecular target: T8, AKT3 Catalytic Domain (Homo sapiens, UniProt Q9Y243); settings: 2 µM protein, 10 µM inhibitor, average of 3 experiments, each in duplicate
T8 construct: AKT3 (Q9Y243); CD; His-tag; made in house; host or cells: Escherichia coli
T8 sequence (Q9Y243 122-479): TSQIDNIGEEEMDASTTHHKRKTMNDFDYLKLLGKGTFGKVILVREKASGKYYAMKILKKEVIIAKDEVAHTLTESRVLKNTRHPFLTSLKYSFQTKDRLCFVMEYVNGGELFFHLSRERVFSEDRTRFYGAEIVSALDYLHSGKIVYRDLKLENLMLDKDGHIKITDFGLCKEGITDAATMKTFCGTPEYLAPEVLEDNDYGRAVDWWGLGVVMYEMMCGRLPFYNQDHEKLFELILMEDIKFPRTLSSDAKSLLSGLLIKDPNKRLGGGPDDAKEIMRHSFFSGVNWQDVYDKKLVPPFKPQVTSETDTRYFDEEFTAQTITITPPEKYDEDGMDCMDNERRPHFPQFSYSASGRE

[3] = molecular target: T9, PAK4 Catalytic Domain+PBD (Homo sapiens, UniProt O96013); settings: 2 µM protein, 10 µM inhibitor, average of 3 experiments, each in duplicate
T9 construct: for 8, we also made a longer version containing one or more additional domains; His-tag; made in house; host or cells: Escherichia coli
T9 sequence (O96013 whole entry, the tested form may be a part): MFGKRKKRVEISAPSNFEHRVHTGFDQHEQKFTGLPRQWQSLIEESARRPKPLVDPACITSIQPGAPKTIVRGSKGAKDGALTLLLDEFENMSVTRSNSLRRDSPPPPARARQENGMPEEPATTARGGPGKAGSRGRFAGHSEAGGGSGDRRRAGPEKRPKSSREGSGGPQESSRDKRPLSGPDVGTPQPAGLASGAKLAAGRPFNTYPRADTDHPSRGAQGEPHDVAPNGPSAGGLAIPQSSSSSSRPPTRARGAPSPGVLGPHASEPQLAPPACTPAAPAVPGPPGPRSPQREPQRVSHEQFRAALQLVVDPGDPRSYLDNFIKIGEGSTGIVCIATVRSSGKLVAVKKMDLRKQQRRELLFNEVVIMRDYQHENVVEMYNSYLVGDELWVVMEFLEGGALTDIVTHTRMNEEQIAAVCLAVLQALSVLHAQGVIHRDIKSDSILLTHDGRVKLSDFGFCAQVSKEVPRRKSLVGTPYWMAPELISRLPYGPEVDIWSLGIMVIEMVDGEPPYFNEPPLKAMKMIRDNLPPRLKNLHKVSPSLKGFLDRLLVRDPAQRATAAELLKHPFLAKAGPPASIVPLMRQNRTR

PAK4 Catalytic Domain = molecular target: T10, PAK4 Catalytic Domain (Homo sapiens, UniProt O96013); settings: 2 µM protein, 10 µM inhibitor, average of 3 experiments, each in duplicate
T10 construct: For all of them, we expressed and purified the catalytic domain separately; His-tag; made in house; host or cells: Escherichia coli
T10 sequence (O96013 321-572 limits assumed): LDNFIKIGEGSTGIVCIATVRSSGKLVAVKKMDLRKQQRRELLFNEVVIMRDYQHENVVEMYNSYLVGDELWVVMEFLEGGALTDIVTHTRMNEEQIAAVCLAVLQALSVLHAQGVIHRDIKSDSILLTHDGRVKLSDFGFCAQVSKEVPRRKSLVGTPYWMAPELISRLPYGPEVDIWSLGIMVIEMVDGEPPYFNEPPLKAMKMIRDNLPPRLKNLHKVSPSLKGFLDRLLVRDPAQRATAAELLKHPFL

DMPK Catalytic Domain = molecular target: T11, DMPK Catalytic Domain (Homo sapiens, UniProt Q09013); settings: 2 µM protein, 10 µM inhibitor, average of 3 experiments, each in duplicate
T11 construct: For all of them, we expressed and purified the catalytic domain separately; His-tag; made in house; host or cells: Escherichia coli
T11 sequence (Q09013 71-339 limits assumed): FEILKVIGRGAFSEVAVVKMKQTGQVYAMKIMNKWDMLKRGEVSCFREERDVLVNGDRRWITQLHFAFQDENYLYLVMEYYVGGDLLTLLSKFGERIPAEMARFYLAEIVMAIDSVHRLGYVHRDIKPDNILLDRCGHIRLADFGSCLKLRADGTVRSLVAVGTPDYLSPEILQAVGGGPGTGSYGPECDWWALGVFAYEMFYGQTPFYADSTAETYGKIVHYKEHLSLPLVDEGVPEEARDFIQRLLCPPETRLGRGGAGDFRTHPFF

CDK2 + Cyclin A = molecular target: T12, CDK2 + Cyclin A (Homo sapiens, UniProt P24941); settings: CDK2 + Cyclin A; 2 µM protein, 10 µM inhibitor; average of 3 experiments, each in duplicate
T12 construct: CDK2 (P24941); 1–299; His-tag; made in house; host or cells: Escherichia coli

| SMILES | Melting temperature (Tm) shift (FES Catalytic Domain) [degrees Celcius] | Melting temperature (Tm) shift [1] [degrees Celcius] | Melting temperature (Tm) shift (SRC Catalytic Domain) [degrees Celcius] | Melting temperature (Tm) shift [2] [degrees Celcius] | Melting temperature (Tm) shift (PAK7 Catalytic Domain) [degrees Celcius] | Melting temperature (Tm) shift (FES Catalytic Domain+SH2) [degrees Celcius] | Melting temperature (Tm) shift (CHK2 Catalytic Domain) [degrees Celcius] | Melting temperature (Tm) shift (STK3 Catalytic Domain) [degrees Celcius] | Melting temperature (Tm) shift (FAK2 Catalytic Domain) [degrees Celcius] | Melting temperature (Tm) shift (AKT3 Catalytic Domain) [degrees Celcius] | Melting temperature (Tm) shift [3] [degrees Celcius] | Melting temperature (Tm) shift (PAK4 Catalytic Domain) [degrees Celcius] | Melting temperature (Tm) shift (DMPK Catalytic Domain) [degrees Celcius] | Melting temperature (Tm) shift (CDK2 + Cyclin A) [degrees Celcius] |
| --- | --- | --- | --- | --- | --- | --- | --- | --- | --- | --- | --- | --- | --- | --- |
| Nc1ncnc2c1c(-c1ccc(Oc3ccccc3)cc1)cn2C1CCCC1 [Lck Inhibitor] | 0.7 | 0.2 | 9.4 | 6.4 | 0.0 | 0.3 | 2.2 | 1.3 |  |  |  |  |  |  |
| CS(=O)(=O)O.Cn1cc(C2=C(c3cn(CCCSC(=N)N)c4ccccc34)C(=O)NC2=O)c2ccccc21 [Ro-31-8220] | 1.0 | 2.9 | 0.2 | 0.0 | 0.9 | 0.8 | 6.6 | 1.8 | 0.5 | 1.6 | 1.6 | 1.5 | 4.8 |  |
| COc1cc2ncnc(Nc3ccc(Cl)cc3Cl)c2cc1OC [Ste11 MAPKKK Activation Inhibitor] | 0.1 | 0.6 | 0.5 | 0.7 | 0.0 | 0.1 | 10.6 | 0.3 | 0.4 |  | 0.1 | 0.0 | 0.4 | 0.1 |
| Cc1nc(N)sc1-c1ccnc(Nc2cccc([N+](=O)[O-])c2)n1 [Cdk2/9 Inhibitor] | 0.3 | 0.4 | 0.5 | 0.6 | 0.3 | 0.1 | 1.8 | 0.7 | 0.5 |  | 2.0 | 0.7 | 0.4 |  |
| CN[C@@H]1C[C@H]2O[C@@](C)([C@@H]1OC)n1c3ccccc3c3c4c(c5c6ccccc6n2c5c31)C(=O)N[C@@H]4O [UCN-01] | 5.2 | 12.7 | 0.4 | 1.2 | 7.4 | 1.3 | 1.7 | 7.6 | 5.9 | 3.2 | 6.8 | 6.2 | 5.9 |  |
| CN1C(=O)C(=C2Nc3ccccc3C2=NO)c2ccc(Br)cc21 [GSK-3 Inhibitor IX, Control, MeBIO] |  | 0.4 | 0.0 | 0.0 | 0.0 |  |  | 0.1 | 0.1 |  | 0.3 | 0.0 |  |  |
| CCCC(=O)Oc1ccc2[nH]c(C(=O)c3cc4ccccc4[nH]3)cc2c1 | 0.3 | 1.2 | 1.1 | 0.6 | 0.1 | 0.1 | 1.4 | 0.5 | 0.3 |  |  | 0.0 |  |  |
| COc1cc2nccc(Oc3ccc(NC(=S)NC(=O)c4ccccc4C)cc3)c2cc1OC [PDGF RTK Inhibitor] | 1.6 | 0.0 | 5.9 | 3.9 |  | 1.5 | 7.6 | 1.7 | 1.0 |  |  |  |  |  |
